Test results: PubChem BioAssay (NCI)
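Where inhibition never reached the appropriate level, the endpoint shown equals the highest concentration tested. Otherwise, values were interpolated linearly from a five-concentration, 48-hour dose response in 96-well plates. GI50 marks 50% less growth. The concentration for full growth arrest is given as TGI.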

Key:
Assay in all cases: NCI-60 cell line screen, 48 h
SNB-19 CNS = test system: SNB-19 CNS
SW-620 colon = test system: SW-620 colon
HS 578T breast = test system: HS 578T breast
RXF 393 renal = test system: RXF 393 renal
SN12C renal = test system: SN12C renal
U251 CNS = test system: U251 CNS
CCRF-CEM leukemia = test system: CCRF-CEM leukemia
IGROV1 ovarian = test system: IGROV1 ovarian
MDA-MB-231 breast = test system: MDA-MB-231 breast
SR leukemia = test system: SR leukemia
T-47D breast = test system: T-47D breast
HCT-15 colon = test system: HCT-15 colon
NCI-H23 lung = test system: NCI-H23 lung
SF-295 CNS = test system: SF-295 CNS
SF-268 CNS = test system: SF-268 CNS
SK-MEL-2 melanoma = test system: SK-MEL-2 melanoma
SF-539 CNS = test system: SF-539 CNS
KM12 colon = test system: KM12 colon
SK-OV-3 ovarian = test system: SK-OV-3 ovarian
NCI-H460 lung = test system: NCI-H460 lung
UACC-257 melanoma = test system: UACC-257 melanoma
SK-MEL-28 melanoma = test system: SK-MEL-28 melanoma
EKVX NSCLC = test system: EKVX NSCLC
K-562 leukemia = test system: K-562 leukemia
CAKI-1 renal = test system: CAKI-1 renal
RPMI-8226 leukemia = test system: RPMI-8226 leukemia
DU-145 prostate = test system: DU-145 prostate
NCI/ADR-RES ovarian = test system: NCI/ADR-RES ovarian
TK-10 renal = test system: TK-10 renal
SNB-75 CNS = test system: SNB-75 CNS
HOP-62 NSCLC = test system: HOP-62 NSCLC
OVCAR-5 ovarian = test system: OVCAR-5 ovarian
MALME-3M melanoma = test system: MALME-3M melanoma
786-0 renal = test system: 786-0 renal
ACHN renal = test system: ACHN renal
M14 melanoma = test system: M14 melanoma
NCI-H522 lung = test system: NCI-H522 lung
HOP-92 NSCLC = test system: HOP-92 NSCLC
UACC-62 melanoma = test system: UACC-62 melanoma
A549 NSCLC = test system: A549 NSCLC
OVCAR-8 ovarian = test system: OVCAR-8 ovarian
BT-549 breast = test system: BT-549 breast
HL-60(TB) leukemia = test system: HL-60(TB) leukemia
MDA-MB-435 = test system: MDA-MB-435
NCI-H226 lung = test system: NCI-H226 lung
A498 renal = test system: A498 renal
COLO 205 colon = test system: COLO 205 colon
OVCAR-4 ovarian = test system: OVCAR-4 ovarian
SK-MEL-5 melanoma = test system: SK-MEL-5 melanoma
MOLT-4 leukemia = test system: MOLT-4 leukemia
HCT-116 colon = test system: HCT-116 colon

N#Cc1cnc2ccc(-c3cnc4[nH]ncc4c3)cc2c1N1CCc2cc(F)c(Cl)cc21
GI50 (SNB-19 CNS): 399 nM
TGI (SNB-19 CNS): > 35400 nM
GI50 (SW-620 colon): 389 nM
TGI (SW-620 colon): > 100000 nM
GI50 (HS 578T breast): 151 nM
TGI (HS 578T breast): 406 nM
GI50 (RXF 393 renal): 171 nM
TGI (RXF 393 renal): 599 nM
GI50 (SN12C renal): 303 nM
TGI (SN12C renal): > 100000 nM
GI50 (U251 CNS): 373 nM
TGI (U251 CNS): > 100000 nM
GI50 (CCRF-CEM leukemia): 355 nM
TGI (CCRF-CEM leukemia): > 100000 nM
GI50 (IGROV1 ovarian): 177 nM
TGI (IGROV1 ovarian): 544 nM
GI50 (MDA-MB-231 breast): 302 nM
TGI (MDA-MB-231 breast): 6700 nM
GI50 (SR leukemia): 262 nM
TGI (SR leukemia): > 100000 nM
GI50 (T-47D breast): 214 nM
TGI (T-47D breast): > 100000 nM
GI50 (HCT-15 colon): 293 nM
TGI (HCT-15 colon): > 100000 nM
GI50 (NCI-H23 lung): 406 nM
TGI (NCI-H23 lung): > 100000 nM
GI50 (SF-295 CNS): 206 nM
TGI (SF-295 CNS): 599 nM
GI50 (SF-268 CNS): 296 nM
GI50 (SK-MEL-2 melanoma): 222 nM
TGI (SK-MEL-2 melanoma): 518 nM
GI50 (SF-539 CNS): 230 nM
TGI (SF-539 CNS): 564 nM
GI50 (KM12 colon): 400 nM
TGI (KM12 colon): > 100000 nM
GI50 (SK-OV-3 ovarian): 214 nM
TGI (SK-OV-3 ovarian): 591 nM
GI50 (NCI-H460 lung): 327 nM
TGI (NCI-H460 lung): > 100000 nM
GI50 (UACC-257 melanoma): 312 nM
TGI (UACC-257 melanoma): > 100000 nM
GI50 (SK-MEL-28 melanoma): 330 nM
TGI (SK-MEL-28 melanoma): > 100000 nM
GI50 (EKVX NSCLC): 309 nM
TGI (EKVX NSCLC): > 100000 nM
GI50 (K-562 leukemia): 360 nM
TGI (K-562 leukemia): > 100000 nM
GI50 (CAKI-1 renal): 250 nM
TGI (CAKI-1 renal): > 100000 nM
GI50 (RPMI-8226 leukemia): 402 nM
TGI (RPMI-8226 leukemia): > 100000 nM
GI50 (DU-145 prostate): 372 nM
TGI (DU-145 prostate): > 100000 nM
GI50 (NCI/ADR-RES ovarian): 334 nM
TGI (NCI/ADR-RES ovarian): > 100000 nM
GI50 (TK-10 renal): 275 nM
TGI (TK-10 renal): > 36200 nM
GI50 (SNB-75 CNS): 145 nM
TGI (SNB-75 CNS): 428 nM
GI50 (HOP-62 NSCLC): 255 nM
TGI (HOP-62 NSCLC): 1100 nM
GI50 (OVCAR-5 ovarian): 371 nM
TGI (OVCAR-5 ovarian): > 100000 nM
GI50 (MALME-3M melanoma): 232 nM
TGI (MALME-3M melanoma): 648 nM
GI50 (786-0 renal): 370 nM
TGI (786-0 renal): 5120 nM
GI50 (ACHN renal): 360 nM
TGI (ACHN renal): > 100000 nM
GI50 (M14 melanoma): 322 nM
TGI (M14 melanoma): > 100000 nM
GI50 (NCI-H522 lung): 254 nM
TGI (NCI-H522 lung): 725 nM
GI50 (HOP-92 NSCLC): 204 nM
TGI (HOP-92 NSCLC): 673 nM
GI50 (UACC-62 melanoma): 250 nM
GI50 (A549 NSCLC): 292 nM
TGI (A549 NSCLC): > 100000 nM
GI50 (OVCAR-8 ovarian): 348 nM
TGI (OVCAR-8 ovarian): > 100000 nM
GI50 (BT-549 breast): 232 nM
TGI (BT-549 breast): 716 nM

Cc1ccc(NC(=O)c2ccc(CN3CCN(C)CC3)c(C(F)(F)F)c2)cc1Oc1ccc(-c2[nH]nc3ncnc(N)c23)cc1
GI50 (SW-620 colon): 1970 nM
TGI (SW-620 colon): 3690 nM
GI50 (HS 578T breast): 4970 nM
TGI (HS 578T breast): 42800 nM
GI50 (SN12C renal): 3680 nM
TGI (SN12C renal): 18700 nM
GI50 (HL-60(TB) leukemia): 6420 nM
TGI (HL-60(TB) leukemia): 78500 nM
GI50 (MDA-MB-435): 1610 nM
TGI (MDA-MB-435): 3340 nM
GI50 (NCI-H226 lung): 18000 nM
TGI (NCI-H226 lung): 72900 nM
GI50 (T-47D breast): 2610 nM
TGI (T-47D breast): 7170 nM
GI50 (HCT-15 colon): 1570 nM
TGI (HCT-15 colon): 3290 nM
GI50 (A498 renal): 18400 nM
TGI (A498 renal): 42900 nM
GI50 (SF-295 CNS): 8510 nM
TGI (SF-295 CNS): 44100 nM
GI50 (SF-268 CNS): 3770 nM
TGI (SF-268 CNS): 30200 nM
GI50 (SK-MEL-2 melanoma): 23200 nM
TGI (SK-MEL-2 melanoma): 81700 nM
GI50 (SF-539 CNS): 1160 nM
TGI (SF-539 CNS): 2500 nM
GI50 (COLO 205 colon): 7290 nM
TGI (COLO 205 colon): 25200 nM
GI50 (KM12 colon): 1600 nM
TGI (KM12 colon): 3670 nM
GI50 (OVCAR-4 ovarian): 18700 nM
TGI (OVCAR-4 ovarian): 42000 nM
GI50 (SK-OV-3 ovarian): 23500 nM
TGI (SK-OV-3 ovarian): 56500 nM
GI50 (NCI-H460 lung): 1840 nM
TGI (NCI-H460 lung): 3590 nM
GI50 (UACC-257 melanoma): 2510 nM
TGI (UACC-257 melanoma): 5800 nM
GI50 (SK-MEL-28 melanoma): 1740 nM
TGI (SK-MEL-28 melanoma): 3390 nM
GI50 (SK-MEL-5 melanoma): 1670 nM
TGI (SK-MEL-5 melanoma): 3090 nM
GI50 (EKVX NSCLC): 2010 nM
TGI (EKVX NSCLC): 4190 nM
GI50 (K-562 leukemia): 713 nM
TGI (K-562 leukemia): > 100000 nM
GI50 (MOLT-4 leukemia): 2030 nM
TGI (MOLT-4 leukemia): 7310 nM
GI50 (CAKI-1 renal): 9050 nM
TGI (CAKI-1 renal): 29700 nM
GI50 (DU-145 prostate): 1830 nM
TGI (DU-145 prostate): 3470 nM
GI50 (NCI/ADR-RES ovarian): 3080 nM
TGI (NCI/ADR-RES ovarian): 12900 nM
GI50 (TK-10 renal): 32400 nM
TGI (TK-10 renal): 63300 nM
GI50 (SNB-75 CNS): 419 nM
TGI (SNB-75 CNS): 24000 nM
GI50 (HOP-62 NSCLC): 2260 nM
TGI (HOP-62 NSCLC): 5140 nM
GI50 (OVCAR-5 ovarian): 1970 nM
TGI (OVCAR-5 ovarian): 3660 nM
GI50 (ACHN renal): 1730 nM
TGI (ACHN renal): 3180 nM
GI50 (M14 melanoma): 1720 nM
TGI (M14 melanoma): 4280 nM
GI50 (NCI-H522 lung): 3040 nM
TGI (NCI-H522 lung): 9350 nM
GI50 (UACC-62 melanoma): 2020 nM
TGI (UACC-62 melanoma): 4810 nM
GI50 (A549 NSCLC): 2180 nM
TGI (A549 NSCLC): 5360 nM
GI50 (HCT-116 colon): 1890 nM
TGI (HCT-116 colon): 4350 nM
